For one assay, the system named is ARN8 melanoma cells. Kind of assay: Sulforhodamine B assay of cancer cell growth and/or viability. The settings on record: ARN8; 2 μM; 72 hours; absence of excess uridine. Format: cell-based. The procedure:
ARN8 melanoma cells are seeded at a density of 500 cells per well of a 96 well plate. Following 24 hours of incubation, cells are treated with increasing concentrations of the compound of Example 8 in the absence or presence of excess uridine (100 micromolar). Cells are incubated for 72 hours after which the growth medium is removed from the cells and replaced by […] of 1× sterile PBS and 50 μL of 40% trichloroacetic acid in dH2O. Samples are incubated at 4° C. for 1 h to fix the cells. The plate is then washed with 3 changes of water with all liquid allowed to drain from the plate. […] of 0.1% sulforhodamine B in 1% acetic acid in H2O is added to each well and incubated for 30 minutes. Excess dye is washed out with three changes of 1% acetic acid in H2O with all liquid allowed to drain from the plate. The remaining dye is solubilized in 100 microliters of 10 mM un-buffered basic Tris per well and absorbance read at 570 nm.
(The SRB assay estimates cell density from bound dye.)

In assay [1] the target is T1, human dihydroorotate dehydrogenase (DHODH) (Homo sapiens (Human), UniProt Q02127). Kind of assay: DHODH enzyme assay, Assay B (DCIP absorbance, 384 well). The format is biochemical. The note with it: 4 nM recombinant human DHODH. The procedure: (§1) Inhibition of human dihydroorotate dehydrogenase (DHODH) by example compounds as described herein was determined using one of two assays as described below.
Example compounds as described herein were dispensed with an acoustic liquid handler, Echo 550 (Labcyte) to a maximum volume of 50 nl per well in a 384 well plate. DHODH enzyme assays were performed with 4 nM recombinant human DHODH (purified essentially as described by Walse et. al., Biochemistry, 47, 8929-8936 (2008)). The reaction mixture consisted of 2 mM DL-dihydroorotic acid (#D7003, Sigma-Aldrich), 100 μM 3,4-dimethoxy-5-methyl-p-benzoquinone (#D9150, Sigma-Aldrich), and 200 μM 2,6-dichlorophenolindophenol sodium salt (DCIP) (#D1878, Sigma-Aldrich) in enzyme buffer (50 mM Tris-HCl pH 8.0, 0.1% Triton X-100, 150 mM KCl) in a final volume of 50 μl per well. A stock solution of 80 mM DCIP was prepared in DMSO just before use. Loss in absorbance by chromogen DCIP was measured at 595 nm at RT every 2 min for an hour with a plate reader (Envision, Perkin Elmer).

Assay [2] has as its target T1, human dihydroorotate dehydrogenase (DHODH). Kind of assay: DHODH enzyme assay, Assay A (DCIP absorbance). The format is biochemical. The note with it: 6 nM recombinant human DHODH. As to the method:
as §1
DHODH enzyme assays were performed with 6 nM recombinant human DHODH (purified essentially as described by Walse et. al., Biochemistry, 47, 8929-8936 (2008)). The reaction mixture consisted of 1 mM DL-dihydroorotic acid (#D7003, Sigma-Aldrich), 100 μM 3,4-dimethoxy-5-methyl-p-benzoquinone (#D9150, Sigma-Aldrich), and 100 μM 2,6-dichlorophenolindophenol sodium salt (DCIP) (#D1878, Sigma-Aldrich) in enzyme buffer (50 mM Tris-HCl pH 8.0, 0.1% Triton X-100, 150 mM KCl). A stock solution of 20 mM DCIP was prepared in enzyme buffer and filtered through Whatman paper just before use. Loss in absorbance by chromogen DCIP was measured at 595 nm at RT every 3 min for an hour.

Structures are written as SMILES.

T1 sequence (Q02127 29-395): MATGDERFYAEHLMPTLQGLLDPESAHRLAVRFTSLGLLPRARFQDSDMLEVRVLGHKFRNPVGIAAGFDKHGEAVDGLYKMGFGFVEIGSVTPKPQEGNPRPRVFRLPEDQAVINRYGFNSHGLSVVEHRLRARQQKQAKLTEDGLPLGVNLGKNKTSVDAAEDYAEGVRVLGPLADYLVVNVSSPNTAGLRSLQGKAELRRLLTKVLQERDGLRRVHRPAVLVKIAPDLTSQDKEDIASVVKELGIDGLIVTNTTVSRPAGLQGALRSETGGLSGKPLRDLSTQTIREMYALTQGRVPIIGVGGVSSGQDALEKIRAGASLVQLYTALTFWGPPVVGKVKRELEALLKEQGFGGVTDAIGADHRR

The term viability denotes a read-out of living cells in per cent, often relative to untreated cells. In the case of `O=C(N[C@@H]1CCCc2c1cnn2-c1ccccc1F)c1ccccn1` [Example 3, (R)—N-(1-(2-fluorophenyl)-4,5,6,7-tetrahydro-1H-indazol-4-yl)picolinamide], in the assay on ARN8 melanoma cells, the viability at 2 µM came out at 30%.
Broadly, the IC50 is the point on the concentration scale where inhibition reaches its midpoint. On to `Cc1ccccc1-n1ncc2c1CCC[C@H]2NC(=O)c1cccnc1O` [Example 21, 2-hydroxy-N-[(4R)-1-(2-methylphenyl)-4,5,6,7-tetrahydro-1H-indazol-4-yl]pyridine-3-carboxamide], for which the IC50 in assay [1] came to 0.881 µM.
Still for that read-out and setting: to `O=C(N[C@@H]1CCCc2c1cnn2-c1ccccc1F)c1nc2ccccc2o1` [Example 33, N-[(4R)-1-(2-fluorophenyl)-4,5,6,7-tetrahydro-1H-indazol-4-yl]-1,3-benzoxazole-2-carboxamide] belongs 0.088 µM.
Still for that read-out and setting: as for `Cc1ccc(C(=O)N[C@@H]2CCCc3c2cnn3-c2ccccc2C)nc1` [Example 24, 5-methyl-N-[(4R)-1-(2-methylphenyl)-4,5,6,7-tetrahydro-1H-indazol-4-yl]pyridine-2-carboxamide], the figure is 0.066 µM.
On to `CSc1nc(C(=O)NC2CCCc3c2cnn3-c2ccc(F)cc2F)cs1` (stereo not drawn) [Example 11, N-[1-(2,4-difluorophenyl)-4,5,6,7-tetrahydro-1H-indazol-4-yl]-2-(methylthio)-1,3-thiazole-4-carboxamide], for which the viability at 2 µM with ARN8 melanoma cells turned out to be 93%. Further, the IC50 in assay [2] was 8.2 µM.
`O=C(NC1CCCc2c1cnn2-c1ccc(F)cc1F)c1onc2c1CCCC2` (stereo not drawn) [Example 5, N-(1-(2,4-difluorophenyl)-4,5,6,7-tetrahydro-1H-indazol-4-yl)-4,5,6,7-tetrahydrobenzo[c]isoxazole-3-carboxamide]: the viability at 2 µM in the assay on ARN8 melanoma cells amounted to 22%. Also, in assay [2], the IC50 is 0.29 µM.
The corresponding values for `O=C(NC1CCCc2c1cnn2-c1ccccc1F)c1cscn1` (stereo not drawn) [Example 4, N-[1-(2-fluorophenyl)-4,5,6,7-tetrahydro-1H-indazol-4-yl]-1,3-thiazole-4-carboxamide] are 52% and 1.11 µM.
As for `Cc1ccnc(C(=O)NC2CCCc3c2cnn3-c2ccccc2)c1` (stereo not drawn) [Example 43, 4-methyl-N-(1-phenyl-4,5,6,7-tetrahydro-1H-indazol-4-yl)pyridine-2-carboxamide], in assay [1], the IC50 was found to be 0.441 µM.
On to `O=C(N[C@H]1CCCc2c1cnn2-c1ccccc1F)c1ccccn1` [Example 2, (S)—N-(1-(2-Fluorophenyl)-4,5,6,7-tetrahydro-1H-indazol-4-yl)picolinamide], for which the viability at 2 µM with ARN8 melanoma cells was 100%.
In the case of `Cc1ccccc1-n1ncc2c1CCC[C@H]2NC(=O)c1cc2ccccc2o1` [Example 17, N-[(4R)-1-(2-methylphenyl)-4,5,6,7-tetrahydro-1H-indazol-4-yl]-1-benzofuran-2-carboxamide], the IC50 in assay [1] is 0.124 µM.
As to `CCc1cc(C(=O)NC2CCCc3c2cnn3-c2ccc(F)cc2F)no1` (stereo not drawn) [Example 10, N-[1-(2,4-difluorophenyl)-4,5,6,7-tetrahydro-1H-indazol-4-yl]-5-ethyl-3-isoxazolecarboxamide], the viability at 2 µM in the assay with ARN8 melanoma cells was found to be 92%. In assay [2], the IC50 amounted to 2.44 µM.
Take `Cc1cnc(C(=O)N[C@@H]2CCCc3c2cnn3-c2ccccc2F)cn1` (single isomer, unassigned) [Example 15, N-[(4R*)-1-(2-fluorophenyl)-4,5,6,7-tetrahydro-1H-indazol-4-yl]-5-methylpyrazine-2-carboxamide]: the IC50 in assay [1] worked out at 0.735 µM.
On to `Cc1cc(C(=O)NC2CCCc3c2cnn3-c2ccc(C)c(C)c2)no1` (stereo not drawn) [Example 6, N-[1-(3,4-dimethylphenyl)-4,5,6,7-tetrahydro-1H-indazol-4-yl]-5-methyl-3-isoxazolecarboxamide], for which the viability at 2 µM with ARN8 melanoma cells turned out to be 105%. In assay [2], the IC50 worked out at 5.83 µM.
On to `Cc1ccccc1-n1ncc2c1CCC[C@H]2NC(=O)c1ccccn1` [Example 20, N-[(4R)-1-(2-methylphenyl)-4,5,6,7-tetrahydro-1H-indazol-4-yl]pyridine-2-carboxamide], for which, in assay [1], the IC50 is 0.355 µM.
The same measure, in the same setting: as for `O=C(N[C@@H]1CCCc2c1cnn2-c1ccccc1F)c1ncn2c1CCCC2` [Example 46, (R)—N-(1-(2-fluorophenyl)-4,5,6,7-tetrahydro-1H-indazol-4-yl)-5,6,7,8-tetrahydroimidazo[1,5-a]pyridine-1-carboxamide], the figure is 0.006 µM; as for `O=C(N[C@@H]1CCCc2c1cnn2-c1ccccc1F)c1cc2ccccc2[nH]1` [Example 35, N-[(4R)-1-(2-fluorophenyl)-4,5,6,7-tetrahydro-1H-indazol-4-yl]-1H-indole-2-carboxamide], 2.67 µM; as for `O=C(N[C@@H]1CCCc2c1cnn2-c1ccccc1F)c1ccc(C(F)(F)F)cn1` [Example 40, N-[(4R)-1-(2-fluorophenyl)-4,5,6,7-tetrahydro-1H-indazol-4-yl]-5-(trifluoromethyl)pyridine-2-carboxamide], 2 µM.
Still for that read-out and setting: as for `Cc1ccccc1-n1ncc2c1CCC[C@H]2NC(=O)c1ncccc1C` [Example 26, 3-methyl-N-[(4R)-1-(2-methylphenyl)-4,5,6,7-tetrahydro-1H-indazol-4-yl]pyridine-2-carboxamide], the figure is 0.096 µM; as for `Cc1ccccc1-n1ncc2c1CCC[C@H]2NC(=O)c1sccc1C` [Example 19, 3-methyl-N-[(4R)-1-(2-methylphenyl)-4,5,6,7-tetrahydro-1H-indazol-4-yl]thiophene-2-carboxamide], 0.136 µM.
The same measure, in the same setting: as for `O=C(N[C@@H]1CCCc2c1cnn2-c1ccccc1F)c1onc2c1CCCC2` [Example 14, N-[(4R)-1-(2-fluorophenyl)-4,5,6,7-tetrahydro-1H-indazol-4-yl]-4,5,6,7-tetrahydro-2,1-benzoxazole-3-carboxamide], the figure is 0.009 µM.
Regarding `COC(=O)c1ccc(C(=O)NC2CCCc3c2cnn3-c2cc(F)cc(F)c2)nc1` (stereo not drawn) [Example 9, Methyl 6-({[1-(3,5-difluorophenyl)-4,5,6,7-tetrahydro-1H-indazol-4-yl]amino}carbonyl)nicotinate], the viability at 2 µM in the assay on ARN8 melanoma cells came out at 8%. In assay [2], the IC50 is greater than 10 µM.
For the compound `O=C(N[C@@H]1CCCc2c1cnn2-c1ccccc1F)c1noc2ccccc12` [Example 28, N-[(4R)-1-(2-fluorophenyl)-4,5,6,7-tetrahydro-1H-indazol-4-yl]-1,2-benzoxazole-3-carboxamide], the IC50 in assay [1] turned out to be 0.018 µM.
Regarding `COc1cc(C(=O)N[C@@H]2CCCc3c2cnn3-c2ccccc2F)nc2ccccc12` [Example 38, (R)—N-(1-(2-fluorophenyl)-4,5,6,7-tetrahydro-1H-indazol-4-yl)-4-methoxyquinoline-2-carboxamide], the IC50 in assay [1] is 2.08 µM.
Still for that read-out and setting: to `Cc1cccc(C(=O)N[C@@H]2CCCc3c2cnn3-c2ccccc2C)n1` [Example 45, 6-methyl-N-[(4R)-1-(2-methylphenyl)-4,5,6,7-tetrahydro-1H-indazol-4-yl]pyridine-2-carboxamide] belongs greater than 3 µM; to `O=C(N[C@@H]1CCCc2c1cnn2-c1cccc(C(=O)N2CCOCC2)c1)c1noc2c1CCCC2` [Example 53, N-[(4R)-1-[3-(morpholine-4-carbonyl)phenyl]-4,5,6,7-tetrahydro-4H-indazol-4-yl]-4,5,6,7-tetrahydro-1,2-benzoxazole-3-carboxamide], 0.22 µM.
On to `CC(C)OC(=O)c1cccc(-n2ncc3c2CCC[C@H]3NC(=O)c2noc3c2CCCC3)c1` [Example 52, Propan-2-yl-3-[(4R)-4-(4,5,6,7-tetrahydro-1,2-benzoxazole-3-amido)-4,5,6,7-tetrahydro-1H-indazol-1-yl]benzoate], for which the IC50 in assay [1] is 0.011 µM.
On the same count and under the same terms, as for `Cc1ccccc1-n1ncc2c1CCC[C@H]2NC(=O)c1oc2ccccc2c1C` [Example 18, 3-methyl-N-[(4R)-1-(2-methylphenyl)-4,5,6,7-tetrahydro-1H-indazol-4-yl]-1-benzofuran-2-carboxamide], the figure is 0.459 µM.

Values taken from US10889564B2, “Tetrahydroindazoles and medical uses thereof” (Genase Therapeutics B.V., priority 2015, dated 2021).
